Source: the NIST ThermoML archive (doi:10.1021/acs.jced.8b00554)

Assay: xn = mol fraction of the nth substance listed
Details: Liquid, Vibrating tube method

CCCCCCCCC [nonane] + CCCO
mass density [kg/m3]
Details	353.15 K	363.15 K
100 kPa, x2 = 0.1231	–	655.98
100 kPa, x2 = 0.2315	–	657.04
100 kPa, x2 = 0.3229	–	658.57
100 kPa, x2 = 0.4272	–	662.45
100 kPa, x2 = 0.7021	–	683
100 kPa, x2 = 0.8941	–	710.52
1000 kPa, x2 = 0.1231	–	657.23
1000 kPa, x2 = 0.8941	–	710.94
1010 kPa, x2 = 0.2315	–	659.34
1010 kPa, x2 = 0.4272	–	664.09
1010 kPa, x2 = 0.7021	–	683.53
1020 kPa, x2 = 0.3229	–	660.57
2010 kPa, x2 = 0.1231	–	658.47
2010 kPa, x2 = 0.2315	–	660.57
2010 kPa, x2 = 0.3229	–	661.82
2010 kPa, x2 = 0.4272	–	665.32
2010 kPa, x2 = 0.7021	–	684.79
2010 kPa, x2 = 0.8941	–	712.1
3010 kPa, x2 = 0.2315	–	661.79
3010 kPa, x2 = 0.3229	–	663.05
3010 kPa, x2 = 0.7021	–	686.04
3010 kPa, x2 = 0.8941	–	713.33
3020 kPa, x2 = 0.1231	–	659.67
3020 kPa, x2 = 0.4272	–	666.57
4010 kPa, x2 = 0.1231	–	660.89
4010 kPa, x2 = 0.3229	–	664.28
4010 kPa, x2 = 0.4272	–	667.83
4010 kPa, x2 = 0.7021	–	687.34
4010 kPa, x2 = 0.8941	–	714.55
4020 kPa, x2 = 0.2315	–	663.04
5000 kPa, x2 = 0.4272	–	669.09
5000 kPa, x2 = 0.7021	–	688.61
5010 kPa, x2 = 0.1231	–	662.09
5010 kPa, x2 = 0.2315	–	664.23
5010 kPa, x2 = 0.3229	–	665.52
5010 kPa, x2 = 0.8941	–	715.78
6000 kPa, x2 = 0.7021	–	689.86
6010 kPa, x2 = 0.2315	–	665.41
6010 kPa, x2 = 0.4272	–	670.36
6010 kPa, x2 = 0.8941	–	717.03
6020 kPa, x2 = 0.1231	–	663.3
6020 kPa, x2 = 0.3229	–	666.76
7000 kPa, x2 = 0.3229	–	667.99
7000 kPa, x2 = 0.7021	–	691.15
7010 kPa, x2 = 0.1231	–	664.48
7010 kPa, x2 = 0.2315	–	666.62
7020 kPa, x2 = 0.4272	–	671.62
7020 kPa, x2 = 0.8941	–	718.27
8000 kPa, x2 = 0.3229	–	669.23
8000 kPa, x2 = 0.7021	–	692.44
8010 kPa, x2 = 0.8941	–	719.48
8020 kPa, x2 = 0.1231	–	665.72
8020 kPa, x2 = 0.2315	–	667.87
8020 kPa, x2 = 0.4272	–	672.88
9000 kPa, x2 = 0.2315	–	669.09
9000 kPa, x2 = 0.3229	–	670.48
9010 kPa, x2 = 0.7021	–	693.71
9010 kPa, x2 = 0.8941	–	720.71
9020 kPa, x2 = 0.1231	–	666.89
9020 kPa, x2 = 0.4272	–	674.14
10010 kPa, x2 = 0.1231	–	668.07
10010 kPa, x2 = 0.2315	–	670.27
10010 kPa, x2 = 0.3229	–	671.75
10010 kPa, x2 = 0.4272	–	675.41
10010 kPa, x2 = 0.7021	–	694.96
10010 kPa, x2 = 0.8941	–	721.93
11000 kPa, x2 = 0.1231	679.16	–
11000 kPa, x2 = 0.4272	688.79	–
11010 kPa, x2 = 0.1231	–	669.29
11010 kPa, x2 = 0.2315	682.07	671.48
11010 kPa, x2 = 0.3229	–	672.98
11010 kPa, x2 = 0.4272	–	676.62
11010 kPa, x2 = 0.7021	709.06	–
11010 kPa, x2 = 0.8941	735.52	723.15
11020 kPa, x2 = 0.3229	684.47	–
11020 kPa, x2 = 0.7021	–	696.2
12000 kPa, x2 = 0.3229	685.59	674.18
12000 kPa, x2 = 0.7021	710.18	697.42
12010 kPa, x2 = 0.1231	680.24	670.44
12010 kPa, x2 = 0.2315	683.2	672.7
12010 kPa, x2 = 0.4272	689.92	677.87
12010 kPa, x2 = 0.8941	736.6	724.32
13000 kPa, x2 = 0.4272	–	679.08
13000 kPa, x2 = 0.8941	–	725.44
13010 kPa, x2 = 0.1231	681.32	671.61
13010 kPa, x2 = 0.3229	–	675.41
13010 kPa, x2 = 0.4272	691.03	–
13010 kPa, x2 = 0.7021	711.31	698.65
13010 kPa, x2 = 0.8941	737.63	–
13020 kPa, x2 = 0.2315	684.28	673.89
13020 kPa, x2 = 0.3229	686.69	–
14000 kPa, x2 = 0.3229	687.76	676.57
14000 kPa, x2 = 0.4272	692.13	–
14000 kPa, x2 = 0.8941	738.72	–
14010 kPa, x2 = 0.1231	682.37	–
14010 kPa, x2 = 0.2315	685.35	–
14010 kPa, x2 = 0.4272	–	680.27
14010 kPa, x2 = 0.7021	–	699.83
14010 kPa, x2 = 0.8941	–	726.63
14020 kPa, x2 = 0.1231	–	672.74
14020 kPa, x2 = 0.2315	–	675.04
14020 kPa, x2 = 0.7021	712.38	–
15000 kPa, x2 = 0.2315	–	676.17
15000 kPa, x2 = 0.4272	693.19	–
15010 kPa, x2 = 0.1231	683.4	673.85
15010 kPa, x2 = 0.3229	688.83	677.73
15010 kPa, x2 = 0.4272	–	681.42
15010 kPa, x2 = 0.7021	713.45	–
15010 kPa, x2 = 0.8941	–	727.76
15020 kPa, x2 = 0.2315	686.39	–
15020 kPa, x2 = 0.7021	–	700.99
15020 kPa, x2 = 0.8941	739.75	–
16000 kPa, x2 = 0.2315	687.43	677.27
16000 kPa, x2 = 0.8941	740.76	–
16010 kPa, x2 = 0.1231	684.41	674.91
16010 kPa, x2 = 0.3229	–	678.86
16010 kPa, x2 = 0.4272	694.24	682.56
16010 kPa, x2 = 0.7021	714.52	–
16020 kPa, x2 = 0.3229	689.88	–
16020 kPa, x2 = 0.7021	–	702.15
16020 kPa, x2 = 0.8941	–	728.86
17000 kPa, x2 = 0.1231	–	676
17000 kPa, x2 = 0.8941	741.78	729.95
17010 kPa, x2 = 0.1231	685.42	–
17010 kPa, x2 = 0.2315	–	678.41
17010 kPa, x2 = 0.3229	690.92	–
17010 kPa, x2 = 0.4272	695.25	683.64
17010 kPa, x2 = 0.7021	715.56	–
17020 kPa, x2 = 0.2315	688.48	–
17020 kPa, x2 = 0.3229	–	679.98
17020 kPa, x2 = 0.7021	–	703.28
18000 kPa, x2 = 0.3229	691.91	–
18000 kPa, x2 = 0.7021	716.55	–
18010 kPa, x2 = 0.1231	686.41	677.05
18010 kPa, x2 = 0.2315	689.45	679.45
18010 kPa, x2 = 0.4272	–	684.75
18010 kPa, x2 = 0.7021	–	704.37
18010 kPa, x2 = 0.8941	742.76	–
18020 kPa, x2 = 0.3229	–	681.03
18020 kPa, x2 = 0.4272	696.27	–
18020 kPa, x2 = 0.8941	–	731.02
19000 kPa, x2 = 0.2315	–	680.43
19000 kPa, x2 = 0.3229	692.9	–
19000 kPa, x2 = 0.4272	697.25	–
19000 kPa, x2 = 0.7021	–	705.41
19010 kPa, x2 = 0.1231	687.34	678.04
19010 kPa, x2 = 0.2315	690.38	–
19010 kPa, x2 = 0.3229	–	682.1
19010 kPa, x2 = 0.4272	–	685.8
19010 kPa, x2 = 0.8941	743.72	732.06
19020 kPa, x2 = 0.7021	717.54	–
20000 kPa, x2 = 0.1231	688.24	–
20000 kPa, x2 = 0.2315	691.33	–
20000 kPa, x2 = 0.3229	693.81	–
20010 kPa, x2 = 0.1231	–	679
20010 kPa, x2 = 0.2315	–	681.42
20010 kPa, x2 = 0.3229	–	683.05
20010 kPa, x2 = 0.4272	698.23	686.85
20010 kPa, x2 = 0.7021	718.51	–
20020 kPa, x2 = 0.7021	–	706.48
20020 kPa, x2 = 0.8941	744.66	733.04
